# Laboratory results taken from US20100267561A1, “HERBICIDAL PYRIDAZINONE DERIVATIVES” (priority 2007, published 2010).
# What was measured:
# Experiment in all cases: Test B pre-/postemergence plant response
# Format in all cases: in vivo
# wild oat (Avena fatua) = settings: for Oat, Wild plant response rating: 8 g ai/ha
# Summary of the method: (§1)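 Preemergence and postemergence (plants 2-18 cm, 1- to 4-leaf stage) applications used test chemicals in a non-phytotoxic solvent with surfactant. Plants were held in a greenhouse 13 to 15 days, then rated visually against controls on a 0-100 scale (0 no effect, 100 complete control).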
# [1] = tested on: blackgrass (Alopecurus myosuroides); settings: for Blackgrass plant response rating: 8 g ai/ha
# Summary of the method: as §1
# [2] = tested on: large crabgrass (Digitaria sanguinalis); settings: for Crabgrass, Large plant response rating: 8 g ai/ha
# Summary of the method: as §1
# [3] = tested on: common (oilseed) sunflower (Helianthus annuus); settings: Preemergence
# Summary of the method: as §1
# [4] = tested on: velvetleaf (Abutilon theophrasti); settings: for Velvetleaf plant response rating: 8 g ai/ha
# Summary of the method: as §1
# [5] = tested on: giant foxtail (Setaria faberii); settings: for Foxtail, Giant plant response rating: 8 g ai/ha
# Summary of the method: as §1
# [6] = tested on: downy bromegrass (Bromus tectorum); settings: for Bromegrass, Downy plant response rating: 8 g ai/ha
# Summary of the method: as §1
# [7] = tested on: green foxtail (Setaria viridis); settings: for Foxtail, Green plant response rating: 8 g ai/ha
# Summary of the method: as §1
# [8] = tested on: morningglory (Ipomoea coccinea); settings: for Morningglory plant response rating: 8 g ai/ha
# Summary of the method: as §1
# [9] = tested on: bermudagrass (Cynodon dactylon); settings: for Bermudagrass plant response rating: 8 g ai/ha
# Summary of the method: as §1
# [10] = tested on: lambsquarters (Chenopodium album); settings: for Lambsquarters plant response rating: 8 g ai/ha
# Summary of the method: as §1
# [11] = tested on: catchweed bedstraw (Galium aparine); settings: Preemergence
# Summary of the method: as §1
# [12] = tested on: wheat (Triticum aestivum); settings: for Wheat plant response rating: 8 g ai/ha
# Summary of the method: as §1
# corn (Zea mays) = settings: for Corn plant response rating: 8 g ai/ha
# Summary of the method: as §1
# [13] = Postemergence, 16 g ai/ha, scale 0 to 100
# [14] = Postemergence, 31 g ai/ha, scale 0 to 100, 0 no effect, 100 complete control
# [15] = Postemergence, 62 g ai/ha, scale 0 to 100, 0 no effect, 100 complete control
# [16] = Preemergence, 31 g ai/ha, 0 to 100 scale, 0 no effect, 100 complete control
# [17] = Preemergence, 62 g ai/ha, scale 0 to 100
# [18] = Preemergence, 16 g ai/ha, scale 0 to 100 (0 no effect, 100 complete control)
# [19] = 16 g ai/ha, scale 0 to 100 (0 no effect, 100 complete control)
# [20] = 31 g ai/ha, 0 to 100 scale, 0 no effect, 100 complete control
smiles,measurement,setting,value
Cc1cc(-c2ccc(Cl)cc2)nn1-c1c(OC(=O)C(C)C)cnn(C)c1=O [Compound 34],"Oat, Wild plant response rating","wild oat (Avena fatua); postemergence, 0-100 scale",70
same,"Plant response rating, Oat, Wild",wild oat (Avena fatua); [13],90
same,"Plant response rating, Oat, Wild",wild oat (Avena fatua); [14],95
same,"Plant response rating, Oat, Wild",wild oat (Avena fatua); [15],100
same,"Plant response rating, Oat, Wild",wild oat (Avena fatua); [16],85
same,"Plant response rating, Oat, Wild",wild oat (Avena fatua); [17],90
same,"Oat, Wild plant response rating","wild oat (Avena fatua); Preemergence, scale 0 to 100",40
same,Blackgrass plant response rating,"[1]; postemergence, 0-100 scale",0
same,"Plant response rating, Blackgrass",[1]; [13],75
same,"Plant response rating, Blackgrass",[1]; [14],75
same,"Plant response rating, Blackgrass",[1]; [15],90
same,"Plant response rating, Blackgrass",[1]; [18],85
same,"Plant response rating, Blackgrass",[1]; [16],100
same,"Plant response rating, Blackgrass",[1]; [17],100
same,Blackgrass plant response rating,"[1]; Preemergence, scale 0 to 100",0
same,"Crabgrass, Large plant response rating","[2]; postemergence, 0-100 scale",70
same,"Plant response rating, Crabgrass, Large",[2]; [13],80
same,"Plant response rating, Crabgrass, Large",[2]; [14],95
same,"Plant response rating, Crabgrass, Large",[2]; [15],100
same,"Plant response rating, Crabgrass, Large",[2]; [18],100
same,"Plant response rating, Crabgrass, Large",[2]; [16],100
same,"Plant response rating, Crabgrass, Large",[2]; [17],100
same,"Crabgrass, Large plant response rating","[2]; Preemergence, scale 0 to 100",100
same,"Plant response rating, Sunflower",[3]; [19],0
same,"Plant response rating, Sunflower",[3]; [20],0
same,"Plant response rating, Sunflower","[3]; 62 g ai/ha, scale 0 to 100",0
same,Sunflower plant response rating,"[3]; 8 g ai/ha, scale 0 to 100",0
same,Velvetleaf plant response rating,"[4]; postemergence, 0-100 scale",0
same,"Plant response rating, Velvetleaf",[4]; [13],0
same,"Plant response rating, Velvetleaf",[4]; [15],0
same,"Plant response rating, Velvetleaf",[4]; [18],0
same,"Plant response rating, Velvetleaf",[4]; [16],0
same,"Plant response rating, Velvetleaf",[4]; [17],0
same,Velvetleaf plant response rating,"[4]; Preemergence, scale 0 to 100",0
same,"Foxtail, Giant plant response rating","[5]; postemergence, 0-100 scale",80
same,"Plant response rating, Foxtail, Giant",[5]; [13],90
same,"Plant response rating, Foxtail, Giant",[5]; [14],100
same,"Plant response rating, Foxtail, Giant",[5]; [15],100
same,"Plant response rating, Foxtail, Giant",[5]; [18],100
same,"Plant response rating, Foxtail, Giant",[5]; [16],100
same,"Plant response rating, Foxtail, Giant",[5]; [17],100
same,"Foxtail, Giant plant response rating","[5]; Preemergence, scale 0 to 100",98
same,"Bromegrass, Downy plant response rating","[6]; postemergence, 0-100 scale",20
same,"Plant response rating, Bromegrass, Downy",[6]; [13],50
same,"Plant response rating, Bromegrass, Downy",[6]; [14],50
same,"Plant response rating, Bromegrass, Downy",[6]; [15],80
same,"Plant response rating, Bromegrass, Downy",[6]; [18],55
same,"Plant response rating, Bromegrass, Downy",[6]; [16],55
same,"Plant response rating, Bromegrass, Downy",[6]; [17],80
same,"Bromegrass, Downy plant response rating","[6]; Preemergence, scale 0 to 100",0
same,"Foxtail, Green plant response rating","[7]; postemergence, 0-100 scale",60
same,"Plant response rating, Foxtail, Green",[7]; [13],90
same,"Plant response rating, Foxtail, Green",[7]; [14],100
same,"Plant response rating, Foxtail, Green",[7]; [15],100
same,"Plant response rating, Foxtail, Green",[7]; [18],100
same,"Plant response rating, Foxtail, Green",[7]; [16],100
same,"Plant response rating, Foxtail, Green",[7]; [17],100
same,"Foxtail, Green plant response rating","[7]; Preemergence, scale 0 to 100",100
same,Morningglory plant response rating,"[8]; postemergence, 0-100 scale",0
same,"Plant response rating, Morningglory",[8]; [13],0
same,"Plant response rating, Morningglory",[8]; [14],0
same,"Plant response rating, Morningglory",[8]; [15],0
same,"Plant response rating, Morningglory",[8]; [18],0
same,"Plant response rating, Morningglory",[8]; [16],0
same,"Plant response rating, Morningglory",[8]; [17],0
same,Morningglory plant response rating,"[8]; Preemergence, scale 0 to 100",0
same,Bermudagrass plant response rating,"[9]; postemergence, 0-100 scale",65
same,"Plant response rating, Bermudagrass",[9]; [13],100
same,"Plant response rating, Bermudagrass",[9]; [14],100
same,"Plant response rating, Bermudagrass",[9]; [15],100
same,Bermudagrass plant response rating,"[9]; Preemergence, scale 0 to 100 (0 no effect, 100 complete control)",50
same,"Plant response rating, Bermudagrass",[9]; [18],98
same,"Plant response rating, Bermudagrass",[9]; [16],98
same,"Plant response rating, Bermudagrass",[9]; [17],100
same,Lambsquarters plant response rating,"[10]; postemergence, 0-100 scale",0
same,"Plant response rating, Lambsquarters",[10]; [13],0
same,"Plant response rating, Lambsquarters",[10]; [14],0
same,"Plant response rating, Lambsquarters",[10]; [15],0
same,"Plant response rating, Lambsquarters",[10]; [18],0
same,"Plant response rating, Lambsquarters",[10]; [16],0
same,"Plant response rating, Lambsquarters",[10]; [17],0
same,Lambsquarters plant response rating,"[10]; Preemergence, scale 0 to 100",0
same,"Plant response rating, Galium",[11]; [19],0
same,"Plant response rating, Galium",[11]; [20],0
same,"Plant response rating, Galium","[11]; 62 g ai/ha, scale 0 to 100",0
same,Galium plant response rating,"[11]; 8 g ai/ha, scale 0 to 100",0
same,Wheat plant response rating,"[12]; postemergence, 0-100 scale",0
same,"Plant response rating, Wheat",[12]; [13],40
same,"Plant response rating, Wheat",[12]; [15],90
same,"Plant response rating, Wheat",[12]; [18],0
same,"Plant response rating, Wheat",[12]; [16],30
same,"Plant response rating, Wheat",[12]; [17],40
same,Wheat plant response rating,"[12]; Preemergence, scale 0 to 100",0
same,Corn plant response rating,"corn (Zea mays); postemergence, 0-100 scale",0
same,"Plant response rating, Corn",corn (Zea mays); [13],98
same,"Plant response rating, Corn",corn (Zea mays); [14],98
same,"Plant response rating, Corn",corn (Zea mays); [15],98
same,"Plant response rating, Corn",corn (Zea mays); [18],65
same,"Plant response rating, Corn",corn (Zea mays); [16],85
same,"Plant response rating, Corn",corn (Zea mays); [17],95
same,Corn plant response rating,"corn (Zea mays); Preemergence, scale 0 to 100",0
